# Patent publication US10745360B2, “Quinoxaline compounds, method for preparing the same and use thereof” (Development Center for Biotechnology, priority 2014, dated 2020)
# Assays:
# B-Raf^V600E kinase = target: T1, B-Raf^V600E kinase (Homo sapiens, UniProt P15056, V600E); assay: B-Raf V600E kinase assay ([33P] incorporation into MEK1 K97R); assay type: biochemical; conditions: recombinant B-Raf^V600E, 8 μM ATP, 30 min, 30° C.; read-out: IC50 ranking against B-Raf^V600E kinase
# T1 construct: purchased Upstate Biotechnology
# Method: (§1) Inhibition of kinase activity by a test compound disclosed herein was estimated by quantifying the amount of [^33P] incorporation of a substrate in the presence of the test compound. Standard assay conditions were 5 ng of recombinant B-Raf^V600E kinase (Upstate Biotechnology) with 500 ng MEK1 (K97R) in assay buffer (8 μM ATP, 0.5 μCi [^33P]ATP (specific activity 3000 Ci/mmol, PerkinElmer), 50 mM Tris/HCl (pH 7.5), and 1 mM EGTA, 1 mM Na3VO4, 1% 2-mercaptoethanol, 0.1% Brij 35, and 0.2 mg/ml BSA), and the test compound (diluted with 4% DMSO) or DMSO alone (as a control) in a final volume of 25 μL. Reactions were incubated at 30° C. for 30 min and stopped by adding 3% phosphoric acid, harvested onto a 96-well GF/B UniFilter (PerkinElmer) using a unifilter harvester (PerkinElmer), and counted with a TopCount microplate scintillation counter (PerkinElmer). The IC50 values of inhibitors were determined after carrying out assays at 3-fold serially diluted concentrations of each compound in duplication. The results were analyzed using linear regression software (GraphPad Prism 4; GraphPad Software Inc.).
# [1] = tested on: B-Raf^V600E mutant A375 melanoma cell; assay: Cell proliferation assay (CELLTITER 96), A375; assay type: cell-based; conditions: Homo sapiens, A-375; A375, 72 hours; read-out: Cytotoxicity (IC50 Ranking) A375 (B-Raf^V600E)
# Method: (§2) Inhibition of cell growth by compounds was measured using CELLTITER 96® assay. The cytotoxicity of compounds was evaluated in B-Raf^V600E mutant A375 melanoma cell, B-Raf^V600E mutant COLO205 colon cancer cell, and SK-MEL-2 melanoma cell with wild type B-Raf (B-Raf^wt) and NRASQ^Q61R mutation. A375 and COLO205 cell line were cultured in DMEM containing 10% FCS and incubated at 37° C. in 5% CO2 atmosphere. SK-MEL-2 cell line was cultured in MEM containing 10% FCS and incubated at 37° C. in 5% CO2 atmosphere. A375, COLO205 and SK-MEL-2 cell were seeded into 96-well plates at 2000, 2000, and 4000 cells/well, respectively, and allowed to adhere for overnight. Then, these seeded cells were treated with increasing concentrations of the test compounds and incubated for another 72 hours. At the end of the incubation, CELLTITER 96® Aqueous One Solution Reagent (Promega) was added and incubated for 4 hours. Cell viability was determined by measuring absorbance at 490 nm using EMAX® microplate reader (Molecular Devices).
# (§3) The 50% inhibitory concentration (IC50) value was calculated by plotting the percentage of growth inhibition against the concentration of compound, using GraphPad Prism5 software for curve fitting.
# C-Raf kinase = target: T2, C-Raf kinase (Homo sapiens, UniProt P04049); assay: C-Raf kinase assay ([33P] incorporation into MEK1 K97R); assay type: biochemical; conditions: recombinant C-Raf, 8 μM ATP, 30 min, 30° C.; read-out: IC50 ranking against C-Raf kinase
# T2 construct: purchased Upstate Biotechnology
# Method: as §1, with “were 2” for “were 5”, “recombinant C-Raf” for “recombinant B-Raf^V600E”, “ng MEK1(K97R)” for “ng MEK1 (K97R)”
# B-Raf kinase = target: T3, B-Raf kinase (Homo sapiens, UniProt P15056); assay: B-Raf kinase assay ([33P] incorporation into MEK1 K97R); assay type: biochemical; conditions: recombinant B-Raf, 8 μM ATP, 30 min, 30° C.; read-out: IC50 ranking against B-Raf kinase
# T3 construct: purchased Upstate Biotechnology
# Method: Inhibition of kinase activity by a test compound disclosed herein was estimated by quantifying the amount of [^33P] incorporation of a substrate in the presence of the test compound. Standard assay conditions were 5 ng of recombinant B-Raf kinase (Upstate Biotechnology) with 500 ng MEK1(Map-erk kinase; K97R) in the assay buffer (8 μM ATP, 0.5 μCi [^33P]ATP (specific activity 3000 Ci/mmol, PerkinElmer), 50 mM Tris/HCl (pH 7.5), and 1 mM EGTA, 1 mM Na3VO4, 1% 2-mercaptoethanol, 0.1% Brij 35, and 0.2 mg/ml BSA) in a final volume of 25 μL. Reactions were incubated at 30° C. for 30 min and stopped by adding 3% phosphoric acid, harvested onto a 96-well GF/B UniFilter (PerkinElmer) using a unifilter harvester (PerkinElmer), and counted with a TopCount microplate scintillation counter (PerkinElmer). The IC50 values of inhibitors were determined after carrying out assays at 3-fold serially diluted concentrations of each compound in duplication. The results were analyzed using linear regression software (GraphPad Prism 4; GraphPad Software Inc.).
# [2] = tested on: SK-MEL-2 melanoma cell with wild type B-Raf (B-Raf^wt) and NRAS^Q61R mutation; assay: Cell proliferation assay (CELLTITER 96), SK-MEL-2; assay type: cell-based; conditions: Homo sapiens; SK-MEL-2, 72 hours; given as bound; read-out: Cytotoxicity (IC50 Ranking) SK-MEL-2 (NRAS^Q61R, B-Raf^wt)
# Method: as §2, §3
# [3] = tested on: B-Raf^V600E mutant COLO205 colon cancer cell; assay: Cell proliferation assay (CELLTITER 96), COLO205; assay type: cell-based; conditions: Homo sapiens, COLO 205; COLO205, 72 hours; read-out: Cytotoxicity (IC50 Ranking) COLO205 (B-Raf^V600E)
# Method: as §2, §3
# T1 sequence (P15056 whole entry V600E): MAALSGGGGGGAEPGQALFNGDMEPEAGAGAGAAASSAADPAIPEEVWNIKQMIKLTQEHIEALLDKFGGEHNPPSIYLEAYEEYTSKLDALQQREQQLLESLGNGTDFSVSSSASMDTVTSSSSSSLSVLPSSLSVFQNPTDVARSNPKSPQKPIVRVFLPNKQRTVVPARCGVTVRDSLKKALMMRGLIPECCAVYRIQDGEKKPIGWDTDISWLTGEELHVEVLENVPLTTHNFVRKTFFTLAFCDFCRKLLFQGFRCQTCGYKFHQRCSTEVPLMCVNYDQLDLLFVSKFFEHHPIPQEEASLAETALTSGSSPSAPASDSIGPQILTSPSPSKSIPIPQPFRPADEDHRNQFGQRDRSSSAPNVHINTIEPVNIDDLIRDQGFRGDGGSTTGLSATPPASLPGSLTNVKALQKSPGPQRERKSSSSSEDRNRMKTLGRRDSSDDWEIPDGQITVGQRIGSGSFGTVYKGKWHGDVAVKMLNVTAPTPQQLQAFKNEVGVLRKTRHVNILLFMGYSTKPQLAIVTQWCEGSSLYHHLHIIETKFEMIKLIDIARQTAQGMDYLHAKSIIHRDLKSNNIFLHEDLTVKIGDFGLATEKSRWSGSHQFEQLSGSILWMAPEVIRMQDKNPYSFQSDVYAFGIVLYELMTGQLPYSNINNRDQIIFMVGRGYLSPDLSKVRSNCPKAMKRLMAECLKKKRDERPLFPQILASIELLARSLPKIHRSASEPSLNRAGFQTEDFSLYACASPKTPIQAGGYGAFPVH
# T2 sequence (P04049 whole entry): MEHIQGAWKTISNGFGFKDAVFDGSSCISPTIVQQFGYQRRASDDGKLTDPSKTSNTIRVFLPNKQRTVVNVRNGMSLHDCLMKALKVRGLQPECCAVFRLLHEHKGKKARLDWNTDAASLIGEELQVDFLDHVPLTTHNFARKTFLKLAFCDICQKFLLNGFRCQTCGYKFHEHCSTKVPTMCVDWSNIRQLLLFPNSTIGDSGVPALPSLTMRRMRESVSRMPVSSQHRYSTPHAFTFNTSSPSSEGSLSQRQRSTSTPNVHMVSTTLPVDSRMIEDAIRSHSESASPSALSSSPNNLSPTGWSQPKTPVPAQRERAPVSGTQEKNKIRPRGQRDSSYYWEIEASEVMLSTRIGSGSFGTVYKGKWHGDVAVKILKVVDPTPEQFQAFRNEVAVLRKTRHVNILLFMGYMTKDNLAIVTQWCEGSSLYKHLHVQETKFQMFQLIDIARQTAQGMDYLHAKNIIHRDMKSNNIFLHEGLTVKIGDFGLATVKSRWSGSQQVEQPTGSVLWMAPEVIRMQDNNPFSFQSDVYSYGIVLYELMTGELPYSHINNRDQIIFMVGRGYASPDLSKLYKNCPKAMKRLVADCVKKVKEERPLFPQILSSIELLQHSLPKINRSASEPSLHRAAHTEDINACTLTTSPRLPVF
# T3 sequence (P15056 whole entry): as the sequence (P15056 whole entry V600E) above, with E600V counted along it
Compound,IC50 (B-Raf^V600E kinase),IC50 [1],IC50 (C-Raf kinase),IC50 (B-Raf kinase),IC50 [2],IC50 [3]
"CCCS(=O)(=O)Nc1ccc(F)c(Nc2ccc3ncc(OCCN(C)C)nc3c2[N+](=O)[O-])c1F [compound 9, N1-[3-({3-[2-(dimethylamino)ethoxy]-5-nitro-6-quinoxalinyl}amino)-2,4-difluorophenyl]-1-propanesulfonamide]",< 300 nM,< 300 nM,< 300 nM,< 300 nM,> 10000 nM,< 300 nM
"CCCS(=O)(=O)Nc1ccc(F)c(Nc2ccc3ncc(OC)nc3c2C#N)c1F [compound 10, N1-{3-[(5-cyano-3-methoxy-6-quinoxalinyl)amino]-2,4-difluorophenyl}-1-propanesulfonamide]",< 300 nM,< 300 nM,< 300 nM,< 300 nM,> 10000 nM,< 300 nM
"CCCS(=O)(=O)Nc1ccc(F)c(Nc2ccc3ncc(Nc4ccccc4F)nc3c2)c1F [compound 11, N1-(2,4-difluoro-3-{[3-(2-fluoroanilino)-6-quinoxalinyl]amino}phenyl)-1-propanesulfonamide]",< 300 nM,300 to 1000 nM,< 300 nM,< 300 nM,> 10000 nM,1000 to 10000 nM
"CCCS(=O)(=O)Nc1ccc(F)c(Nc2ccc3ncc(Nc4cccnc4)nc3c2)c1F [compound 12, N1-(2,4-difluoro-3-{[3-(3-pyridylamino)-6-quinoxalinyl]amino}phenyl)-1-propanesulfonamide]",< 300 nM,1000 to 10000 nM,< 300 nM,< 300 nM,> 10000 nM,300 to 1000 nM
"CCCS(=O)(=O)Nc1ccc(F)c(Nc2ccc3ncc(Nc4ccc(F)cc4F)nc3c2)c1F [compound 13, N1-(3-{[3-(2,4-difluoroanilino)-6-quinoxalinyl]amino}-2,4-difluorophenyl)-1-propanesulfonamide]",< 300 nM,300 to 1000 nM,< 300 nM,< 300 nM,> 10000 nM,1000 to 10000 nM
"COc1cnc2ccc(Nc3c(F)ccc(NS(C)(=O)=O)c3F)c([N+](=O)[O-])c2n1 [compound 14, N-{2,4-difluoro-3-[(3-methoxy-5-nitro-6-quinoxalinyl)amino]phenyl}methanesulfonamide]",300 to 1000 nM,1000 to 10000 nM,300 to 1000 nM,300 to 1000 nM,> 10000 nM,1000 to 10000 nM
"CCCS(=O)(=O)Nc1ccc(F)c(Nc2ccc3ncc(O)nc3c2C#N)c1F [compound 15, N1-{3-[(5-cyano-3-hydroxy-6-quinoxalinyl)amino]-2,4-difluorophenyl}-1-propanesulfonamide]",< 300 nM,300 to 1000 nM,< 300 nM,< 300 nM,> 10000 nM,300 to 1000 nM
"CCCS(=O)(=O)Nc1ccc(F)c(Nc2ccc3ncc(OCCN4CCOCC4)nc3c2C#N)c1F [compound 16, N1-(3-{[5-cyano-3-(2-morpholinoethoxy)-6-quinoxalinyl]amino)-2,4-difluorophenyl)-1-propanesulfonamide]",< 300 nM,< 300 nM,< 300 nM,< 300 nM,> 10000 nM,< 300 nM
"CCCS(=O)(=O)Nc1ccc(F)c(Nc2ccc3ncc(OCC)nc3c2C#N)c1F [compound 17, N-(3-(5-cyano-3-ethoxyquinoxalin-6-ylamino)-2,4-difluorophenyl)propane-1-sulfonamide]",< 300 nM,< 300 nM,< 300 nM,< 300 nM,> 10000 nM,< 300 nM
"CCCS(=O)(=O)Nc1ccc(F)c(Nc2ccc3ncc(N(C)C)nc3c2C#N)c1F [compound 18, N-(3-(5-cyano-3-(dimethylamino)quinoxalin-6-ylamino)-2,4-difluorophenyl)propane-1-sulfonamide]",< 300 nM,< 300 nM,< 300 nM,< 300 nM,> 10000 nM,< 300 nM
"CCCS(=O)(=O)Nc1ccc(F)c(Nc2ccc3ncc(N4CCOCC4)nc3c2C#N)c1F [compound 19, N-(3-(5-cyano-3-morpholinoquinoxalin-6-ylamino)-2,4-difluorophenyl)propane-1-sulfonamide]",< 300 nM,< 300 nM,< 300 nM,< 300 nM,> 10000 nM,< 300 nM
"CCCS(=O)(=O)Nc1ccc(F)c(Nc2ccc3ncc(NC)nc3c2C#N)c1F [compound 20, N-(3-(5-cyano-3-(methylamino)quinoxalin-6-ylamino)-2,4-difluorophenyl)propane-1-sulfonamide]",< 300 nM,< 300 nM,< 300 nM,< 300 nM,> 10000 nM,< 300 nM
"CCCS(=O)(=O)Nc1c(F)ccc(Nc2ccc3ncc(OC)nc3c2C#N)c1F [compound 21, N-(3-(5-cyano-3-methoxyquinoxalin-6-ylamino)-2,6-difluorophenyl)propane-1-sulfonamide]",< 300 nM,< 300 nM,< 300 nM,< 300 nM,> 10000 nM,< 300 nM
"CCCS(=O)(=O)Nc1cc(Nc2ccc3ncc(OC)nc3c2C#N)ccc1F [compound 22, N-(5-(5-cyano-3-methoxyquinoxalin-6-ylamino)-2-fluorophenyl)propane-1-sulfonamide]",< 300 nM,< 300 nM,< 300 nM,< 300 nM,> 10000 nM,< 300 nM
"CCCS(=O)(=O)Nc1ccc(F)c(Nc2ccc3ncc(N4CCOCC4)nc3c2C#N)c1 [compound 23, N-(3-(5-cyano-3-morpholinoquinoxalin-6-ylamino)-4-fluorophenyl)propane-1-sulfonamide]",300 to 1000 nM,< 300 nM,1000 to 10000 nM,300 to 1000 nM,> 10000 nM,< 300 nM
